In assay [1] the test system is T-cells (CD3ε+) and NK-cells (CD56+). Briefly: IL-2-induced CD69 expression on T-cells and NK-cells incubated with or without MO (flow cytometry). In kind it is cell-based, human. Here is the method: FIG. 1 is a graph showing the protection of CD3ε+ T-cells against oxidative inhibition by DPI. Lymphocytes and MO were recovered from peripheral blood as described herein. A mixture of MO and lymphocytes was treated with culture medium (control, open circles) or IL-2 (100 U/ml; filled circles) for 16 hrs. After incubation, lymphocytes were labeled with antibodies to CD3ε and CD69. […] Similar results were obtained when CD69 expression was examined in CD56+. NK-cells incubated with MO: 29.5% (control) or 79.0% (DPI 1000 nM) of NK-cells acquired the CD69 antigen in response to IL-2. […] The results are representative of three similar experiments.
(§1) Peripheral venous blood was obtained as freshly prepared leukopacks from healthy blood donors at the Blood Centre, Sahlgren's Hospital, Goteborg, Sweden, to study the activation characteristics of cytotoxic lymphocytes in the presence and absence of MO, and ROM inhibitors. The blood (65 ml) was mixed with 92.5 ml Iscove's medium, 35 ml 6% Dextran (Kabi Pharmacia, Stockholm, Sweden) and 7.5 ml acid citrate dextrose (ACD) (Baxter, Deerfield, Ill.). After incubation for 15 minutes at room temperature, the supernatant was carefully layered onto Ficoll-Hypaque (Lymphoprep, Myegaard, Norway). Mononuclear cells (MNC) were collected at the interface after centrifugation at 380 g for 15 minutes at room temperature, washed twice in PBS and resuspended in Iscove's medium supplemented with 10% human AB+serum. During all further separation of cells, the cell suspensions were kept in siliconized test tubes (Vacuette, Greiner, Stockholm).
The MNC were further separated into lymphocyte and monocyte (MO) populations using the counter-current centrifugal elutriation (CCE) technique originally described by Yasaka and co-workers (Yasaka, T. et al., J. Immunol., 127:1515) with modifications as described in Hansson, M., et al. (J. Immunol., 156: 42 (1996); hereby incorporated by reference). Briefly, the MNC were resuspended in elutration buffer containing 0.05% BSA and 0.015% EDTA in buffered NaCl and fed into a Beckman J2-21 ultracentrifuge with a JE-6B rotor at 2100 rpm. A fraction with >90% MO was obtained at a flow rate of 18 ml/min. A lymphocyte fraction enriched for NK-cells (CD3^−/56^+ phenotype) and T-cells (CD3^+/56^−) was recovered at flow rates of 14-15 ml/min. This fraction contained <3% MO and consisted of CD3,^−/56^+ NK-cells (45-50%), CD3,^+/56^− T-cells (35-40%), CD3,^−/56^− cells (5-10%), and CD3,^+/56^+ cells (1-5%), as judged by flow cytometry. In some experiments, dynabeads (Dynal A/S, Oslo, Norway) coated with anti-CD56 were used to obtain purified lymphocyte preparations of T-cells, as described in detail by Hansson, M., et al., incorporated above.
Flow cytometry was used in the experiments described below to identify the various sub-populations of T-cells. Flow cytometry permits an investigator to examine a population of cells using a number of labeled probes to differentiate sub-populations within the larger whole. In these experiments, the CD3 marker was used to identify the sub-population of T-cells and the CD4 and CD8 markers were used to further identify the sub-population of T-cells into T helper cells and CTLs. The effects of MO exposure in the presence and absence of histamine and T-cell activation compounds were determined using the CD69 T-cell activation marker. The expression of the different markers was estimated in a lymphocyte gate using flow cytometry (as described in Hellstrand, K., et al. Cell. Immunol. 138: 44-54 (1991), and hereby incorporated by reference).
The following protocol was used in experiments reporting the detection of surface antigens of cell populations. One million cells were incubated with appropriate fluorescein isothiocynate (FITC) and phycoerythrin (PE) conjugated monoclonal antibodies (Becton & Dickinson, Stockholm, Sweden; 1:1/10^6 cells), on ice for 30 minutes. […]

Assay [2] is described as follows: Scavenging of superoxide anion. As to conditions: 200 U/ml.
Assay [3] deals with elutriated MO (monocytes/macrophages). Description: Chemiluminescence assay of spontaneous isoluminol-enhanced extracellular superoxide anion generation in elutriated MO. In kind it is cell-based, human. Here is the method:
as §1, with “Stockholm). […]” for “Stockholm).”
To assess whether DPI and histamine inhibited the spontaneous release of ROM from MO, a chemiluminescence assay was performed that specifically quantified extracellular ROM (superoxide anion). The spontaneous isoluminol-enhanced extracellular generation of superoxide anion in elutriated MO was measured using the assay described in Hellstrand, K., et al., J Immunol, 153:4940-4947 (1994) and in Lundqvist & Dahlgren, Free Radic. […]

The test system of another assay is mouse sarcoma (MCG). Briefly: In vivo tumor growth of subcutaneously inoculated mouse sarcoma (MCG). Set-up: species or system C57/b16 mice. As to conditions: for Mean Tumor Weight: control .941. How it is done: The following in vivo study was conducted to determine DPI's effectiveness in inhibiting tumor growth rate. C57/b16 mice were subcutaneously inoculated with mouse sarcoma (MCG) on Day 1. The mice were then subcutaneously injected once daily for Days 1-9 with either NaCl or DPI. There were 5 different treatment groups, including the control group that received NaCl. The other four treatment groups were administered DPI subcutaneously at dosages of either 1 mg/kg, 10 mg/kg, 50 mg/kg, or 100 mg/kg. On Day 9, the mice were killed and tumor size and weight was measured. The resulting tumor weights are provided below in Table 2.

In the next assay the test system is T-cells and NK-cells. Briefly: MO-induced apoptosis in T-cells and NK-cells (flow cytometry, reduced forward and increased right angle scatter). In kind it is cell-based, human. As to conditions: lymphocytes with MO, DPI 100 nM, Fas:Fc-IgG 20 μg/ml.

Regarding Catalase [reference compound], the “MO-induced inhibition of IL-2-induced CD69 expression in T-cells and NK-cells” value in assay [1] (catalase at concentrations exceeding 50 U/ml) is recorded as “significantly reversed”.
For the compound “superoxide dismutase [reference compound]”, the “MO-induced inhibition of IL-2-induced CD69 expression in T-cells and NK-cells” value in assay [1] (superoxide dismutase 200 U/ml) was “ineffective”. The compound further registered a superoxide anion scavenged in assay [2] of over 90%.
For `c1ccc([I+]c2ccccc2)cc1` [DPI, diphenyliodonium], the “NK-cells that acquired the CD69 antigen in response to IL-2” value in assay [1] (CD56+ NK-cells incubated with MO, DPI 1000 nM, IL-2 100 U/ml, 16 hrs, control 29.5%) turned out to be 79.0%. The “MO-induced inhibition of T-cells and NK-cells (IL-2-induced CD69)” value in assay [1] (DPI, lymphocytes with MO, IL-2 100 U/ml, 16 hours) is recorded as “significantly reversed”. For the same compound, the “IL-2-induced expression of CD69 in T-cells or NK-cells” value in assay [1] (incubated in the absence of MO) was “did not increase”. Further, in assay [1] (lymphocytes with MO, DPI 100 nM, Fas:Fc-IgG 20 μg/ml, control 36), the “viable CD56+/69+ (gated events)” value was determined as 1248 gated events. Further, the “viable CD3+/CD69+ (gated events)” value in assay [1] (lymphocytes with MO, DPI 100 nM, Fas:Fc-IgG 20 μg/ml, control 89) came out at 701 gated events. The “reduction of released extracellular superoxide anion” value in assay [3] (DPI 10 nM, MO from three blood donors) is reported as “more than four fold reduction”. The “Mean Tumor Weight” value in the assay on mouse sarcoma (MCG) (1 mg/kg s.c. once daily Days 1-9, Day 9) is reported as 1.107 gms; in the assay with mouse sarcoma (MCG) (10 mg/kg s.c. once daily Days 1-9, Day 9), “.643 gms”; in the assay on mouse sarcoma (MCG) (50 mg/kg s.c. once daily Days 1-9, Day 9), “.638 gms”; with mouse sarcoma (MCG) (100 mg/kg s.c. once daily Days 1-9, Day 9), “.473 gms”. Further, in the assay on mouse sarcoma (MCG) (1, 10, 50, 100 mg/kg s.c. once daily Days 1-9), the “effect on tumor growth rate in vivo” value is listed as “dose dependent inhibiting effect”. The “apoptotic CD3+/CD69+(%)” value in the assay with T-cells and NK-cells (control 52) was 7%. Further, the “apoptotic CD56+/CD69+(%)” value with T-cells and NK-cells (control 71) is given as 13%.
Take `NCCc1c[nH]cn1` [histamine, reference compound]: the “inhibition of the concentration of extracellular superoxide anion” value in assay [3] (histamine at 50 μM) is on record as “more than five-fold”.

These data come from US20040120926A1, “Reactive oxygen metabolite inhibitors for use in compositions and methods of treatment” (priority 1999, published 2004).
